In assay [1] the target is T1, IppB (Rhodococcus sp. D-6, UniProt A0AAU7V3K6, H72A, form not given).
T1 sequence (A0AAU7V3K6 1-190 H72A): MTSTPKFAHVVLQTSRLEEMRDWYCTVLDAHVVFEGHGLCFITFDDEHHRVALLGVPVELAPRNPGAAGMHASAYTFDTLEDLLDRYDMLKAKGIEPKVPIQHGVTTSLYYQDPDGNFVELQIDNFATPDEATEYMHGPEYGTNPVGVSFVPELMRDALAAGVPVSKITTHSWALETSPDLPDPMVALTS
In words: enzyme activity assay. The conditions noted are these: standard assay 200 µM substrate, 1.0 µM enzyme, 10 µM Fe^2+; 20 mM Tris-HCl pH 7.4, 30°C; Fe(II)-binding residue. It is filed as biochemical.

In assay [2] the target is T2, IppB (Rhodococcus sp. D-6, UniProt A0AAU7V3K6).
T2 sequence (A0AAU7V3K6 1-190): T1 sequence (A0AAU7V3K6 1-190 H72A) with A72H
Nature of the assay: Michaelis-Menten kinetics, nonlinear regression. The format is biochemical. The conditions noted are these: 1.0 µM IppB, 10 µM Fe^2+; 20 mM Tris-HCl pH 7.4, 30°C; read-out: apparent Km.

In assay [3] the target is T3, IppB (Rhodococcus sp. D-6, UniProt A0AAU7V3K6, H9A, form not given).
T3 sequence (A0AAU7V3K6 1-190 H9A): T1 sequence (A0AAU7V3K6 1-190 H72A) with H9A, A72H
Nature of the assay: enzyme activity assay. The format is biochemical. The conditions noted are these: standard assay 200 µM substrate, 1.0 µM enzyme, 10 µM Fe^2+; 20 mM Tris-HCl pH 7.4, 30°C; Fe(II)-binding residue.

Assay [4] concerns the target T4, IppB (Rhodococcus sp. D-6, UniProt A0AAU7V3K6, E120A, form not given).
T4 sequence (A0AAU7V3K6 1-190 E120A): T1 sequence (A0AAU7V3K6 1-190 H72A) with A72H, E120A
In words: enzyme activity assay. It is filed as biochemical. The conditions noted are these: standard assay 200 µM substrate, 1.0 µM enzyme, 10 µM Fe^2+; 20 mM Tris-HCl pH 7.4, 30°C; Fe(II)-binding residue.

The test system of assay [5] is T5, IppA1A2 (IppA1 with reductase component IppA2).
T5 construct: mixed at molar ratio 3:1 in assay; with 2-isopropylphenol monooxygenase, reductase component (flavin reductase)
In words: Michaelis-Menten kinetics, nonlinear regression. The conditions noted are these: 250 µM NADH, 10 µM FAD, 1.2 µM IppA1, 0.4 µM IppA2; 20 mM Tris-HCl pH 7.4, 30°C; read-out: apparent Km. The format is biochemical, Rhodococcus sp. D-6.

Residue numbers refer to the chain shown, from its start.

The values below come from PMC12442392, “Identification of a novel ipp gene cluster responsible for 2-isopropylphenol degradation in strain Rhodococcus sp. D-6” (Applied and Environmental Microbiology, 2025).

With `CC(C)c1cc(O)ccc1O` [2-isopropylhydroquinone], the “activity lost (no turnover)” value at IppB [1], on IppB [3] and on IppB [4] was “all variants lost their activity against 2-isopropylhydroquinone” throughout. Besides, on IppB [2], the Km worked out at 29.1 ± 1.54 µM.

Consider `CC(C)c1ccccc1O` [2-isopropylphenol], for which the Km in assay [5] came to 60.5 ± 1.27 µM.

By Km is commonly meant the substrate concentration at which the rate is half of its maximum.
